Measurements as given in patent publication US10233173B2, “Substituted 1,2,3-triazoles as NR2B-selective NMDA modulators” (JANSSEN PHARMACEUTICA NV, priority 2016, dated 2019).

molecular target: human GluN1/GluN2B NMDA receptors (Homo sapiens, UniProt Q05586+Q13224); experiment: Cell-based calcium flux (FLIPR) assay on cloned human NR1/NR2B ion channels expressed in mammalian cells; conditions: standard assay; glutamate at ~EC80; FLIPR calcium flux
Procedure: Effects of Test Articles on Cloned Human NR1/NR2B Ion Channels Expressed in Mammalian Cells
NMDA receptors are ion channels that are highly permeable to Ca^2+ ions, rendering it possible to monitor NMDA receptor function using cell-based calcium flux assay. In this assay, co-agonists glutamate and glycine are added to cells heterologously expressing human GluN1/GluN2B NMDA receptors to initiate cellular Ca^2+ influx. The time course of the changes in intracellular calcium is measured using a fluorescent dye and a FLIPR (Fluorometric Imaging Plate Reader) device.
Twenty four hours before measurements, the expression of the NMDA receptors in the stable cell line is induced with Tet-On inducible system in the presence of a non-selective NMDA receptor blocker. On the day of the experiment, cell culture media is carefully washed and the cells are loaded with Calcium 5 Dye Kit (Molecular Devices) in dye loading buffer containing 149 mM NaCl, 4 mM KCl, 2 mM CaCl2, and 1.5 mM MgCl2, 10 mM HEPES and 5 mM D-glucose; pH 7.4. After 1 h incubation at the room temperature, the dye is washed away with the assay buffer (149 mM NaCl (standard assay) or 150 mM (HTS assay), 4 mM KCl (standard assay) or 3 mM (HTS assay), 2 mM CaCl2, 0.01 mM EDTA, 10 mM HEPES and 5 mM D-glucose; pH 7.4) In the FLIPR TETRA reader, various concentrations of the test compounds are added to the cells for 5 min while fluorescence is monitored to detect potential agonist activity. Next, co-agonists, glutamate and glycine are added for another 5 minutes. The concentration of glutamate corresponding to ˜EC80 (standard assay) or EC40 (HTS assay) is used to maximize the assay's signal window or the ability to detect NMDA receptor antagonists and negative allosteric modulators, respectively. A saturating concentration (10 μM) of glycine is also present in the assay. […] The fluorescent signal in the presence of test compounds is quantified and normalized to the signal defined by the appropriate control wells.

Chain of human GluN1/GluN2B NMDA receptors (Q13224 27-1484, other chains not shown): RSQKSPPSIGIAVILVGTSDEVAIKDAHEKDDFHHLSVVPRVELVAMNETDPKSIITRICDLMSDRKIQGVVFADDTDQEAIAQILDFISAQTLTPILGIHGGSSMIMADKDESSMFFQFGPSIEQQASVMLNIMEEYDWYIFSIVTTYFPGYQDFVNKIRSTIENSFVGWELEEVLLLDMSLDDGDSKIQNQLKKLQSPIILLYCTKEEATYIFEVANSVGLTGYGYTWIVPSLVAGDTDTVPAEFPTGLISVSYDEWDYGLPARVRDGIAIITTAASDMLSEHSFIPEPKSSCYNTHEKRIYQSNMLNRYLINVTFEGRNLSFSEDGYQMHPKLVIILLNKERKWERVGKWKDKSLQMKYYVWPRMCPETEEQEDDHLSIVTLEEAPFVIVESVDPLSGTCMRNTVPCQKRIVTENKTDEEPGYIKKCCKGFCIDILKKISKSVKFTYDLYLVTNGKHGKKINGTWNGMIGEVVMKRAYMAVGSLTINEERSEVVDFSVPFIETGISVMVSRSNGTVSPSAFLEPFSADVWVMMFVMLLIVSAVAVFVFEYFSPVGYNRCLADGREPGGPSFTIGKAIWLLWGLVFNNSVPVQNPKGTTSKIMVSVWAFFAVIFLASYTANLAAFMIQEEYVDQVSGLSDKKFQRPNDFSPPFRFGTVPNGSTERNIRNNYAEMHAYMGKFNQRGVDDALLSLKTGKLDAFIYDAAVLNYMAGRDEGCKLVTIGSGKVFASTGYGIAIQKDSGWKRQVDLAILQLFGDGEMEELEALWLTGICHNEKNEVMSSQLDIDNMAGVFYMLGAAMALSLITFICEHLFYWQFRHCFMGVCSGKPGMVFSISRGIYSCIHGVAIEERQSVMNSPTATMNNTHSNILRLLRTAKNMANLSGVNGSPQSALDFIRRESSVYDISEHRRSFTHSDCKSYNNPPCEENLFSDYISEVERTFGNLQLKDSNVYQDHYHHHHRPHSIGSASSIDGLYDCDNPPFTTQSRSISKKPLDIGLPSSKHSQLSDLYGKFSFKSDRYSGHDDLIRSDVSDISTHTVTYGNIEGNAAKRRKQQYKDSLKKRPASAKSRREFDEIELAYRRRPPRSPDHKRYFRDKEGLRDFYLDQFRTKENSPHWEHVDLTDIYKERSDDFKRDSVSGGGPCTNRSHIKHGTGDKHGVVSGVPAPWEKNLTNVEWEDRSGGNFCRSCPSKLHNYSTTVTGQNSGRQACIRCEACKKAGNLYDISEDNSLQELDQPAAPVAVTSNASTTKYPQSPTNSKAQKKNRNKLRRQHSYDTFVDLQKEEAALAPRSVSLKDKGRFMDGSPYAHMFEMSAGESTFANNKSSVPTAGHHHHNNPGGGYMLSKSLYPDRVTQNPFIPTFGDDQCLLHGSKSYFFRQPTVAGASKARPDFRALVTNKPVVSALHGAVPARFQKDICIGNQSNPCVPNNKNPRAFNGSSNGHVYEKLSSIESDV

Row | Compound | IC50 [µM]
1 | Fc1cccc(-n2cc(COc3ncccn3)nn2)c1F [Example 607, 2-[[1-(2,3-Difluorophenyl)triazol-4-yl]methoxy]pyrimidine] | 3.43
2 | CN(C)C(=O)c1ccnc(OCc2cn(-c3ccc(F)c(C(F)F)c3)nn2)n1 [Example 410, 2-[[1-[3-(Difluoromethyl)-4-fluoro-phenyl]triazol-4-yl]methoxy]-N,N-dimethyl-pyrimidine-4-carboxamide] | > 2.99
3 | COc1ccnc(OCc2cn(-c3ccc(F)c(C(F)(F)F)c3)nn2)n1 [Example 442, 2-[[1-[4-Fluoro-3-(trifluoromethyl)phenyl]triazol-4-yl]methoxy]-4-methoxy-pyrimidine] | 0.072
4 | CNc1ccnc(OCc2cn(-c3ccc(F)c(C(F)(F)F)c3)nn2)n1 [Example 449, 2-[[1-[4-Fluoro-3-(trifluoromethyl)phenyl]triazol-4-yl]methoxy]-N-methyl-pyrimidin-4-amine] | 0.034
5 | Cc1ccnc(OCc2cn(-c3ccc(Cl)c(C(C)(F)F)c3)nn2)n1 [Example 531, 2-[[1-[4-Chloro-3-(1,1-difluoroethyl)phenyl]triazol-4-yl]methoxy]-4-methyl-pyrimidine] | 0.017
6 | Cc1ccc(F)c(-n2cc(COc3ncc(F)c(C)n3)nn2)c1 [Example 486, 5-Fluoro-2-[[1-(2-fluoro-5-methyl-phenyl)triazol-4-yl]methoxy]-4-methyl-pyrimidine] | > 2.99
7 | Fc1ccc(-n2cc(COc3ncc(N4CC(F)C4)cn3)nn2)cc1C(F)(F)F [Example 455, 2-((1-(4-Fluoro-3-(trifluoromethyl)phenyl)-1H-1,2,3-triazol-4-yl)methoxy)-5-(3-fluoroazetidin-1-yl)pyrimidine] | 0.034
8 | COc1nc(OCc2cn(-c3ccc(F)c(C(F)F)c3)nn2)ncc1C [Example 411, 2-[[1-[3-(Difluoromethyl)-4-fluoro-phenyl]triazol-4-yl]methoxy]-4-methoxy-5-methyl-pyrimidine] | 0.021
9 | Cc1ccc(-n2cc(COc3ncc(C(C)(C)O)cn3)nn2)cc1OC(F)F [Example 526, 2-[2-[[1-[3-(Difluoromethoxy)-4-methyl-phenyl]triazol-4-yl]methoxy]pyrimidin-5-yl]propan-2-ol] | 0.425
10 | CC(F)(F)c1cc(-n2cc(COc3ncc(C(C)(O)C(F)(F)F)cn3)nn2)ccc1Cl (racemic) [Example 539, (R/S)-2-[2-[[1-[4-Chloro-3-(1,1-difluoroethyl)phenyl]triazol-4-yl]methoxy]pyrimidin-5-yl]-1,1,1-trifluoro-propan-2-ol] | 0.45

same assay, conditions: standard assay; human GluN1/GluN2B, calcium flux (FLIPR), glutamate ~EC80

Row | Compound | IC50 [µM]
11 | FC1(F)Oc2ccc(-n3cc(COc4ncccn4)nn3)cc2O1 [Example 355, 2-[[1-(2,2-Difluoro-1,3-benzodioxol-5-yl)triazol-4-yl]methoxy]pyrimidine] | 0.238
12 | Cc1ccccc1-n1cc(COc2ncccn2)nn1 [Example 236, 2-[[1-(o-Tolyl)triazol-4-yl]methoxy]pyrimidine] | > 10
13 | FC(F)Oc1cc(-n2cc(CNc3ccccn3)nn2)ccc1Cl [Example 2, N-((1-(4-Chloro-3-(difluoromethoxy)phenyl)-1H-1,2,3-triazol-4-yl)methyl)pyridin-2-amine] | 0.213
14 | CC(C)(O)c1cnc(OCc2cn(-c3cccc(C(C)(F)F)c3)nn2)nc1 [Example 301, 2-[2-[[1-[3-(1,1-Difluoroethyl)phenyl]triazol-4-yl]methoxy]pyrimidin-5-yl]propan-2-ol] | 0.119
15 | Cc1cnc(OCc2cn(-c3ccc4c(c3)OC(F)(F)O4)nn2)nc1 [Example 354, 2-[[1-(2,2-Difluoro-1,3-benzodioxol-5-yl)triazol-4-yl]methoxy]-5-methyl-pyrimidine] | 0.073
16 | FC(F)Oc1cnc(OCc2cn(-c3cccc(C(F)F)c3)nn2)nc1 [Example 276, 5-(Difluoromethoxy)-2-[[1-[3-(difluoromethyl)phenyl]triazol-4-yl]methoxy]pyrimidine] | 0.031
17 | FC(F)Oc1cnc(OCc2cn(-c3ccc(Cl)c(OC(F)F)c3)nn2)nc1 [Example 35, 2-[[1-[4-Chloro-3-(difluoromethoxy)phenyl]triazol-4-yl]methoxy]-5-(difluoromethoxy)pyrimidine] | 0.006
18 | Cc1ccnc(OC(C)c2cn(-c3ccc(Cl)c(OC(F)F)c3)nn2)n1 (racemic) [Example 59, (R/S)-2-[1-[1-[4-Chloro-3-(difluoromethoxy)phenyl]triazol-4-yl]ethoxy]-4-methyl-pyrimidine] | 0.04
19 | FC(F)c1cc(-n2cc(COc3ccccn3)nn2)ccc1Cl [Example 11, 2-[[1-[4-Chloro-3-(difluoromethyl)phenyl]triazol-4-yl]methoxy]pyridine] | 1.2
20 | COc1cnc(OCc2cn(-c3ccc(F)c(C(F)(F)F)c3)nn2)nc1 [Example 73, 2-[[1-[4-Fluoro-3-(trifluoromethyl)phenyl]triazol-4-yl]methoxy]-5-methoxy-pyrimidine] | 0.008
21 | Fc1ccc(-n2cc(CNc3ccccn3)nn2)cc1OC(F)F [Example 221, N-((1-(3-(Difluoromethoxy)-4-fluorophenyl)-1H-1,2,3-triazol-4-yl)methyl)pyridin-2-amine] | 0.724
22 | CCc1cnc(NCc2cn(-c3ccc(Cl)c(C(F)F)c3)nn2)nc1 [Example 202, N-[[1-[4-Chloro-3-(difluoromethyl)phenyl]triazol-4-yl]methyl]-5-ethyl-pyrimidin-2-amine] | 0.044
23 | Cc1ccc(-n2cc(COc3ncccn3)nn2)cc1 [Example 256, 2-[[1-(p-Tolyl)triazol-4-yl]methoxy]pyrimidine] | 4.42
24 | Cc1ccc(OCc2cn(-c3ccc(Cl)c(OC(F)F)c3)nn2)cn1 [Example 104, 5-[[1-[4-Chloro-3-(difluoromethoxy)phenyl]triazol-4-yl]methoxy]-2-methyl-pyridine] | 0.729
25 | Cc1cnc(NCc2cn(-c3ccc(F)c(OC(F)F)c3)nn2)nc1 [Example 222, N-((1-(3-(Difluoromethoxy)-4-fluorophenyl)-1H-1,2,3-triazol-4-yl)methyl)-5-methylpyrimidin-2-amine] | 0.064
26 | FC(F)Oc1cc(-n2cc(COc3ncc(Cl)cn3)nn2)ccc1Cl [Example 28, 5-Chloro-2-[[1-[4-chloro-3-(difluoromethoxy)phenyl]triazol-4-yl]methoxy]pyrimidine] | 0.002
27 | CC(F)(F)c1cc(-n2cc(COc3ncc(C(F)(F)F)cn3)nn2)ccc1F [Example 71, 2-[[1-[3-(1,1-Difluoroethyl)-4-fluoro-phenyl]triazol-4-yl]methoxy]-5-(trifluoromethyl)pyrimidine] | 0.04
28 | CC(F)(F)c1cccc(-n2cc(COc3ncc(N4CCC4)cn3)nn2)c1 [Example 320, 5-(Azetidin-1-yl)-2-[[1-[3-(1,1-difluoroethyl)phenyl]triazol-4-yl]methoxy]pyrimidine] | 0.061
29 | Cc1cnc(OCc2cn(-c3ccc(Br)c(C)n3)nn2)nc1 [Example 94, 2-[[1-(5-Bromo-6-methyl-2-pyridyl)triazol-4-yl]methoxy]-5-methyl-pyrimidine] | 2.91
30 | CCc1cnc(OCc2cn(-c3ccc(F)c(Br)c3)nn2)nc1 [Example 40, 2-[[1-(3-Bromo-4-fluoro-phenyl)triazol-4-yl]methoxy]-5-ethyl-pyrimidine] | 0.001
31 | CC(F)(F)c1cccc(-n2cc(COc3nccc(C(F)F)n3)nn2)c1 [Example 303, 2-[[1-[3-(1,1-Difluoroethyl)phenyl]triazol-4-yl]methoxy]-4-(difluoromethyl)pyrimidine] | 0.085
